In patent US6384061B1, “Hydantoin compounds and methods related thereto” (LG Chemical Ltd., priority 2000, dated 2002):

How the values were obtained:
[1] = molecular target: T1, Ras farnesyl transferase (Homo sapiens, UniProt P49354+P49356); test: Ras farnesyl transferase inhibiting activity (filter-binding, tritium-farnesylpyrophosphate, Ras-CVLS substrate); assay type: biochemical; details: recombinant Ras farnesyl transferase, 30 minutes at 37° C., read-out: Ftase IC50
T1 construct: made in house
Procedure: The enzyme reaction was performed in 50 μl of 50 mM Sodium HEPES buffer solution containing 25 mmol of potassium chloride. 25 mmol of magnesium chloride, 10 mmol of DTT and 50 μmol of zinc chloride. 1.5 μmol of Ras substrate protein, 0.15 μmol of tritium-farnesylpyrophosphate and 4.5 nmol of farnesyl transferase were used.
More specifically, in the initial step, farnesyl transferase was added to the above buffer solution, reaction was maintained for 30 minutes at 37° C. and then the reaction was stopped by adding 1 ml of ethanol solution containing 1M HCl. The formed precipitates were adsorbed to GF/B filter using Hopper harvestor(Hopper #225V) for filter-binding, washed with ethanol, and then radioactivity of the dried filter was measured using LKB β counter. Enzyme titer was measured in the unsaturated state of substrate where the concentrations of Ras substrate protein and farnesyl transferase have quantitative relationship. Enzyme inhibiting activity was measured using less than 5% of total reaction solution of the compound according to the present invention dissolved in dimethylsulfoxide(DMSO) solution as a reagent. Enzyme inhibiting activity was represented by percentage of the amount of the farnesyl incorporated with the reagent to that without the reagent.

[2] = test system: intracellular Ras farnesyl transferase, Rat2 cell line; test: Intracellular Ras farnesyl transferase inhibiting activity in transformed Rat2 cells (35S-methionine labelling, Y13-259 immunoprecipitation, SDS-PAGE); assay type: cell-based; details: Rattus norvegicus; transformed Rat2 fibroblast cell line; concentration inhibiting 50% of farnesyl binding of Ras protein; read-out: Ftase CIC50
Procedure: In the present experiment, Rat2 cell line which expresses C-Harvey-Ras protein having transforming activity and Rat2 cell line(Korean patent application No. 97-14409) which is transformed with fused protein of H-Ras substituted with polybasic lysine domain at C-terminus of K-Ras were used. The experiment was performed by the modified Declue's method(Declue. J. E. et al., Cancer Research, 1991. 51, 712). Hereinafter, the experimental method will be described in more detail.
3×10^5 cells of transformed Rat2 fibroblast cell line were sprayed on 60 mm cell cultivation dish and cultivated for 48 hours in a cell incubator at 37° C. and after 50% or more of density was reached, it was treated with a reagent. The compound according to the present invention dissolved in dimethylsulfoxide(DMSO) was used as the reagent. 1% of dimethylsulfoxide was used in both control and experimental groups. After 4 hours from the treatment of the reagent, methionine labeled with 150 μCi of radioactive isotope, ^35S per 1 ml of medium, was added and after cultivating for 20 hours, the cells were washed with physiological saline water. The cells were lysed using 1 ml of cool cell lysis buffer solution(50 mM of Sodium Herpiss buffer solution containing 5 mmol of magnesium chloride. 1 mmol of DTT, 1% NP 40, 1 mmol of EDTA, 1 mmol of PMSF, 2 μmol of leupeptin, 2 μmol of pepstatin A and 2 μmol of antipain) and the supernatant was obtained by high-velocity centrifugation of 12,000 g×5 minutes. The amount of the labeled radioisotope of the supernatent was measured and standardized to obtain a quantitative result in immunoprecipitation reaction and then. Y13-259, monoclonal antiboby specifically binding to Ras protein(Furth, M. E. et al., J. Virol, 1982, 43, 294) was added and reacted for 15 hours at 4° C. Protein A bound to goat anti-murine Immunoglobulin antibody-agarose suspension was added to the solution and reacted for 1 hour at 4° C. and then, to remove unspecific binding product, immunoprecipitates were washed with buffer solution(50 mM Tris chloride buffer solution containing 50 mmol of sodium chloride, 0.5% of sodium dioxycolate, 0.5% of NP 40 and 0.1% of SDS). The precipitates were boiled in reagent buffer solution for electrophoresis and then, electrophoresis was performed using 13.5% of SDS polyacrylamide gel. After electrophoresis, the gel was fixed and dried. Then, the gel was exposed to X-ray film, developed and printed. From the result of the experiment, intensities of band of protein with and without farnesyl of Ras protein were measured, and the concentration of reagent inhibiting 50% of farnesyl binding was defined as CIC50, an intracellular Ras farnesyl transferase inhibiting activity.

[3] = molecular target: T2, Geranylgeranyl transferase (Bos taurus, UniProt P29702+Q5EAD5); test: Geranylgeranyl transferase inhibiting activity (geranylgeranyl pyrophosphate, Ras-CVIL substrate); assay type: biochemical; details: geranylgeranyl transferase purified from bovine brain, read-out: GGtase IC50
T2 construct: Geranylgeranyl transferase was purified from bovine brain; from tissue; host or cells: bovine brain
Procedure: To evaluate the selective enzyme inhibiting activity of the compound according to the present invention, inhibiting activity on geranylgeranyl transferase was measured. Geranylgeranyl transferase was purified from bovine brain with the method modified from Schber's method(Schber et al., J. Biol. Chem. 1990, 265, 14701). and substantially the same experiment as that of farnesyl transferase was performed using geranylgeranyl pyrophosphate and Ras-CVIL substrate protein under the similar condition to farnesyl transferase reaction.

SMILES | IC50 [1] [µM] | IC50 [2] [µM] | IC50 [3] [µM]
CN(C)CCNC(=O)CC1C(=O)N(Cc2cncn2Cc2ccc(C#N)cc2)C(=O)N1Cc1cccc2ccccc12 (stereo not drawn) [Compound 82, 2-{1-[3-(4-cyano-benzyl)-3H-imidazol-4-ylmethyl]-3-naphthalen-1-ylmethyl-2,5-dioxo-imidazolidin-4-yl}-N-(2-(N,N-dimethylamino)-ethyl)-acetamide] | 0.15 | < 20 | > 10
CCN1C(=O)N(CCCc2cncn2Cc2ccc(C#N)cc2)C(=O)C1(C)c1cccc2ccccc12 (stereo not drawn) [Compound 47, 4-{5-[3-(3-ethyl-4-methyl-4-naphthalen-1-yl-2,5-dioxo-imidazolidin-1-yl)-propyl]-imidazol-1-ylmethyl}benzonitrile] | 0.018 | < 20 | > 10
N#Cc1ccc(Cn2cncc2CN2C(=O)CN(Cc3cccc4ccccc34)C2=O)cc1 [Compound 75, 4-[5-(3-naphthalen-1-ylmethyl-2,5-dioxo-imidazolidin-1-ylmethyl)-imidazol-1-ylmethyl]-benzonitrile] | 0.03 | > 50 | > 10
CC1(c2cccc3ccccc23)C(=O)N(CCCn2ccnc2)C(=O)N1Cc1ccc(C(=O)N2CCOCC2)cc1 (stereo not drawn) [Compound 40] | 1.4 | < 20 | > 10
CC1(c2cccc3ccccc23)C(=O)N(CCCn2ccnc2)C(=O)N1Cc1ccccc1CNS(C)(=O)=O (stereo not drawn) [Compound 35, N-{2-[3-(3-imidazol-1-yl-propyl)-5-methyl-5-naphthalen-1-yl-2,4-dioxo-imidazolidin-1-ylmethyl]-benzyl}-methanesulfonamide] | 0.5 | < 20 | > 10
N#Cc1ccc(Cn2cncc2CN2C(=O)C(CC(=O)O)N(Cc3cccc4ccccc34)C2=O)cc1 (stereo not drawn) [Compound 78, {1-[3-(4-cyano-benzyl)-3H-imidazol-4-ylmethyl]-3-naphthalen-1-ylmethyl-2,5-dioxo-imidazolidin-4-yl}-acetic acid] | 0.1 | < 20 | > 10
CN1C(=O)N(CCCc2cncn2Cc2ccc(C#N)cc2)C(=O)C1(C)c1cccc2ccccc12 (stereo not drawn) [Compound 46, 4-{5-[3-(3-methyl-4-methyl-4-naphthalen-1-yl-2,5-dioxo-imidazolidin-1-yl)-propyl]-imidazol-1-ylmethyl}-benzonitrile] | 0.044 | < 20 | > 10
COCCNC(=O)c1ccc(CN2C(=O)N(CCCn3ccnc3)C(=O)C2(C)c2cccc3ccccc23)cc1 (stereo not drawn) [Compound 41, 4-[3-(3-imidazol-1-yl-propyl)-5-methyl-5-naphthalen-1-yl-2,4-dioxo-imidazolidin-1-ylmethyl]-N-(2-methoxy-ethyl)-benzamide] | 0.53 | < 20 | > 10
CSc1ccc(CN2C(=O)N(CCCn3ccnc3)C(=O)C2(C)c2cccc3ccccc23)cc1 (stereo not drawn) [Compound 26, 3-(3-imidazol-1-yl-propyl)-1-(4-methylsulfanyl-benzyl)-5-methyl-5-naphthalen-1-yl-imidazolidin-2,4-dione] | 0.7 | < 20 | > 10
O=C1CN(c2cccc3ccccc23)C(=O)N1CCCn1ccnc1 [Compound 87, 3-(3-imidazol-1-yl-propyl)-1-naphthalen-1-yl-imidazolidin-2,4-dione] | 5 | > 50 | > 10
CC1(c2cccc3ccccc23)C(=O)N(CCCn2ccnc2)C(=O)N1Cc1ccc(Oc2ccccc2)cc1 (stereo not drawn) [Compound 24, 3-(3-imidazol-1-yl-propyl)-5-methyl-5-naphthalen-1-yl-1-(4-phenoxy-benzyl)-imidazolidin-2,4-dione] | 0.75 | < 20 | > 10
CC1(c2cccc3ccccc23)C(=O)N(CCCc2cncn2Cc2ccc(C#N)cc2)C(=O)N1Cc1cccc(C#N)c1 (stereo not drawn) [Compound 54, 4-(5-{3-[3-(3-cyano-benzyl)-4-methyl-4-naphthalen-1-yl-2,5-dioxo-imidazolidin-1-yl]-propyl}-imidazol-1-ylmethyl)-benzonitrile] | 0.05 | < 20 | > 10
COC(=O)C(CCSC)NC(=O)CN1C(=O)N(CCc2c[nH]cn2)C(=O)C1(C)c1cccc2ccccc12 (stereo not drawn) [Compound 3, 2-(2-{3-[2-(1H-imidazol-4-yl)-ethyl]-5-methyl-5-naphthalen-1-yl-2,4-dioxo-imidazolidin-1-yl}-acetylamino)-4-methylsulfanyl-butyric acid methyl ester] | 2.5 | 5 | > 10
CC1(c2ccccc2)C(=O)N(CCCn2ccnc2)C(=O)N1Cc1cccc(C#N)c1 (stereo not drawn) [Compound 71, 3-[3-(3-imidazol-1-yl-propyl)-5-methyl-5-phenyl-2,4-dioxo-imidazolidin-1-ylmethyl]-benzonitrile] | 7 | < 20 | > 10
CC1(c2cccc3ccccc23)C(=O)N(CCCn2ccnc2)C(=O)N1Cc1ccccc1 (stereo not drawn) [Compound 16, 1-benzyl-3-(3-imidazol-1-yl-propyl)-5-methyl-5-naphthalen-1-yl-imidazolidin-2,4-dione] | 2.5 | < 20 | > 10
CC1(c2cccc3ccccc23)C(=O)N(CCCc2cncn2Cc2ccc(C#N)cc2)C(=O)N1C(=O)c1ccco1 (stereo not drawn) [Compound 56, 4-(5-{3-[3-(furan-2-carbonyl)-4-methyl-4-naphthalen-1-yl-2,5-dioxo-imidazolidin-1-yl]-propyl}-imidazol-1-ylmethyl)-benzonitrile] | 0.08 | < 20 | > 10
CC1(c2cccc3ccccc23)C(=O)N(CCCc2cnc[nH]2)C(=O)N1CC(=O)N1CCSC1 (stereo not drawn) [Compound 10, 3-[3-(3H-imidazol-4-yl)-propyl]-5-methyl-5-naphthalen-1-yl-1-(2-oxo-2-thiazolidin-3-yl-ethyl)-imidazolidin-2,4-dione] | > 50 | < 20 | > 10
CC1(c2cccc3ccccc23)C(=O)N(CCCc2cncn2Cc2ccc(C#N)cc2)C(=O)N1Cc1ccccc1 (stereo not drawn) [Compound 53, 4-(5-{3-[3-benzyl-4-methyl-4-naphthalen-1-yl-2,5-dioxo-imidazolidin-1-yl]-propyl}-imidazol-1-ylmethyl)-benzonitrile] | 0.065 | < 20 | > 10
N#Cc1ccc(Cn2cncc2CN2C(=O)CN(c3cccc4ccccc34)C2=O)cc1 [Compound 72, 4-[5-(3-naphthaten-1-yl-2,5-dioxo-imidazolidin-1-ylmethyl)-imidazol-1-ylmethyl]-benzonitrile] | 0.02 | < 20 | > 10
CC1(c2cccc3ccccc23)C(=O)N(CCCc2cncn2Cc2ccc(C#N)cc2)C(=O)N1CC(=O)O (stereo not drawn) [Compound 52, (3-{3-[3-(4-cyanobenzyl)-3H-imidazol-4-yl]-propyl}-5-methyl-5-naphthalen-1-yl-2,4-dioxo-imidazolidin-1-yl)-acetic acid] | 0.019 | < 20 | > 10
